US8350118B2, “Allergic disease model animals” (Keio University, priority 2008, dated 2013)

System: Langerhans cells
Assay: corneum-barrier transmission: uptake into Langerhans cells after application to ear skin surface
Type: in vivo, mouse
Conditions: 7 weeks of age, 10 mg/mL applied to skin surface inside the ear, ears collected after 24 hours
Excerpt: To confirm that the skin-barrier function is impaired in FLG-gene deficient mice, a method was developed for evaluating skin-barrier function based on the amount of uptake of antigen into Langerhans cells that are antigen-presenting cells in epidermis, to examine the skin-barrier function in FLG^−/− mice and wild-type mice. In a conventional method for evaluating antigen uptake into Langerhans cells by externally applying antigen to the skin, reagents such as FITC that easily pass through the corneum barrier has been used. However, a change in the corneum-barrier transmission due to loss of filaggrin cannot be observed by the methods using reagents that easily pass through the corneum barrier. Thus the present inventors established for the first time a method for evaluating corneum-barrier transmission using sulfo-NHS-LC-biotin which is a cell-membrane impermeable, protein-biotinylating reagent. This method has enabled the observation of a change in corneum-barrier transmission. The structural formula of sulfo-NHS-LC-biotin is shown below. Sulfo-NHS-LC-biotin (#21335; Thermo Scientific) was applied to a FLG^−/− mouse and a wild-type littermate mouse at 7 weeks of age on the skin surface inside the ear, and the uptake into Langerhans cells was observed under a fluorescence microscope. […]

With `O=C(CCCCC1SCC2NC(=O)NC21)NCCCCCC(=O)ON1C(=O)CC(S(=O)(=O)[O-])C1=O.[Na+]` (centres unmarked) [biotin, sulfo-NHS-LC-biotin] the “biotin uptake into Langerhans cells” value (FLG−/− mouse) was “biotin (green) taken up was accumulated in Langerhans cell body (red)” and the “biotin uptake into Langerhans cells” value (wild-type littermate mouse) was “no biotin (green) uptake into Langerhans cells (red) was observed”.
